Results as given in patent US9896445B2, “Heterocyclic inhibitors of ERK1 and ERK2 and their use in the treatment of cancer” (Asana Biosciences, LLC, priority 2015, dated 2018).

Assays:
ERK1 = biological target: T1, ERK1 (Homo sapiens, UniProt P27361); test: ERK1 HTRF (biochemical) assay
T1 construct: purchased Jubilant Biosys
Description: ERK1 and ERK2 HTRF (Biochemical) Assays
These assays employed a homogeneous time resolved fluorescence (HTRF) technique. […] The plate was incubated at room temperature for 60 min with shaking. […] The IC50 values (half maximal inhibitory concentration values) were subsequently determined using a sigmoidal dose-response curve (variable slope) in GraphPad Prism® 5 software.

ERK2 = biological target: T2, ERK2 (Homo sapiens, UniProt P28482); test: ERK2 HTRF (biochemical) assay
T2 construct: purchased Jubilant Biosys
T2 sequence (P28482 whole entry): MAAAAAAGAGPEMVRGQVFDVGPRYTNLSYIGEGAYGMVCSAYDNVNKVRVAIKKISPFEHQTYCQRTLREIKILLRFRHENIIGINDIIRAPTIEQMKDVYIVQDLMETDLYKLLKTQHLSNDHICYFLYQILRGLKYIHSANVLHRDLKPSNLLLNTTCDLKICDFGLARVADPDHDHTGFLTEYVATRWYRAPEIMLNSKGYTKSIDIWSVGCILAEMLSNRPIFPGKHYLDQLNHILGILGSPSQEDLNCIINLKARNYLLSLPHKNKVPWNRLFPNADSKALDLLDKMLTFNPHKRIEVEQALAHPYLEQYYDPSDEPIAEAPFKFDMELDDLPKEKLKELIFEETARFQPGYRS
Summary of the method: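 Compounds were tested as half-log dilutions from 0.0005 to 10 uM in Tris pH 7.5/MgCl2 buffer, with a substrate mix of 1 uM biotin-MBP peptide and 24 uM ATP and an enzyme mix of 25 nM ERK2. Reaction ran 60 min at room temperature. Phospho-MBP was detected by HTRF (Eu-anti-phospho-MBP/SA-APC, 665/620 nm), and IC50 was fitted with a variable-slope sigmoidal curve.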

T1 sequence (P27361 whole entry): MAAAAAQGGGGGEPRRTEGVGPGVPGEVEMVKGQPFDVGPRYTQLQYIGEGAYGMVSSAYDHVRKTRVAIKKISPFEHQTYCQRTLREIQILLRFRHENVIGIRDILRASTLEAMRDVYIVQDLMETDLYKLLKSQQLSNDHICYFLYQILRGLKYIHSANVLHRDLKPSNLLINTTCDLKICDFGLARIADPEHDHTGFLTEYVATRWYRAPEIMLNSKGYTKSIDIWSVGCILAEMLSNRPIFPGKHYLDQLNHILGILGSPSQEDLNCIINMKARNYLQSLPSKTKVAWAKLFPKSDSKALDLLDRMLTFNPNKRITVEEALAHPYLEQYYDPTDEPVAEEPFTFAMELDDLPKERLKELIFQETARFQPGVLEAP

| Structure (SMILES) | IC50 (ERK1; HTRF) [nM] | melting point [°C] | IC50 (ERK2; HTRF) [nM] | IC50 (ERK1; HTRF biochemical assay) [nM] | IC50 (ERK2; HTRF biochemical assay) [nM] |
| --- | --- | --- | --- | --- | --- |
| Cc1cnc(Nc2ccc3c(c2)OCO3)nc1-n1cc(NC(=O)N[C@H](CO)c2ccccc2)cn1 [Compound 55, (S)-1-(1-(2-(benzo[d][1,3]dioxol-5-ylamino)-5-methylpyrimidin-4-yl)-1H-pyrazol-4-yl)-3-(2-hydroxy-1-phenylethyl)urea] | 50 to 100 | 208.3 | 50 to 100 | – | – |
| Cc1cnc(N[C@H]2CCOC2)nc1-n1cnc(C(=O)N[C@H](CO)c2cccc(Cl)c2)c1 [Compound 192, N-((S)-1-(3-Chlorophenyl)-2-hydroxyethyl)-1-(5-methyl-2-(((S)-tetra-hydrofuran-3-yl)amino)pyrimidin-4-yl)-1H-imidazole-4-carboxamide] | < 50 | 117 | ≤ 50 | – | – |
| O=C(NC(CO)c1cccc(Cl)c1)c1cn(-c2ccnc(Nc3ccccc3)c2)cn1 (centres unmarked) [Compound 77, N-(1-(3-chlorophenyl)-2-hydroxyethyl)-1-(2-(phenylamino)pyridin-4-yl)-1H-imidazole-4-carboxamide] | < 50 | 130 | ≤ 50 | – | – |
| Cc1cnc(Nc2ccc(F)cc2)cc1-n1ccc(C(=O)NC(CN)c2cccc(Cl)c2)c1 (centres unmarked) [Compound 159, N-(2-Amino-1-(3-chlorophenyl)ethyl)-1-(2-((4-fluorophenyl)amino)-5-methylpyridin-4-yl)-1H-pyrrole-3-carboxamide] | 50 to 100 | 118.1 | ≤ 50 | – | – |
| Cc1cnc(Nc2ccc(F)cc2)cc1-n1cnc(C(=O)NC(CN)c2ccccc2)c1 (centres unmarked) [Compound 191, N-(2-amino-1-phenylethyl)-1-(2-((4-fluorophenyl)amino)-5-methylpyridin-4-yl)-1H-imidazole-4-carboxamide] | < 50 | 154.7 | 50 to 100 | – | – |
| Cc1cnc(N[C@H]2CCOC2)nc1-n1ccc(C(=O)N[C@H](CO)c2cccc(Cl)c2)c1 [Compound 161, N-((S)-1-(3-chlorophenyl)-2-hydroxyethyl)-1-(5-methyl-2-(((S)-tetrahydrofuran-3-yl)amino)pyrimidin-4-yl)-1H-pyrrole-3-carboxamide] | < 50 | – | ≤ 50 | – | – |
| Cc1cnc(Nc2ccc(F)cc2)cc1-n1cnc(C(=O)NC(CN)c2ccc(F)cc2)c1 (centres unmarked) [Compound 230, N-(2-amino-1-(4-fluorophenyl)ethyl)-1-(2-((4-fluoro-phenyl)amino)-5-methylpyridin-4-yl)-1H-imidazole-4-carboxamide] | < 50 | – | ≤ 50 | – | – |
| Cc1cnc(NC2CCOCC2)nc1-n1cnc(C(=O)NCc2ccccc2CCO)c1 [Compound 94, N-(2-(2-hydroxyethyl)benzyl)-1-(5-methyl-2-((tetrahydro-2H-pyran-4-yl)amino)pyrimidin-4-yl)-1H-imidazole-4-carboxamide] | < 50 | – | ≤ 50 | – | – |
| O=C(NC(CO)c1cccc(Cl)c1)c1ccn(-c2ccnc(NC3CCNC3)c2)c1 (centres unmarked) [Compound 145, N-(1-(3-chloro-phenyl)-2-hydroxy-ethyl)-1-(2-(pyrrolidin-3-ylamino)pyridin-4-yl)-1H-pyrrole-3-carboxamide] | > 2500 | – | 500 to 2500 | – | – |
| Cc1cnc(Nc2ccc(F)c(N3CCNCC3)c2)nc1-n1ccc(C(=O)NC(CO)c2cccc(Cl)c2)c1 (centres unmarked) [Compound 213, N-(1-(3-chlorophenyl)-2-hydroxyethyl)-1-(2-((4-fluoro-3-(piperazin-1-yl)phenyl)amino)-5-methylpyrimidin-4-yl)-1H-pyrrole-3-carboxamide] | < 50 | – | ≤ 50 | – | – |
| Cc1cnc(NC2CCOCC2)nc1-n1cnc(C(=O)NC(CO)c2cccs2)c1 (centres unmarked) [Compound 233, N-(2-hydroxy-1-(thiophen-2-yl)ethyl)-1-(5-methyl-2-((tetrahydro-2H-pyran-4-yl)amino)-pyrimidin-4-yl)-1H-imidazole-4-carboxamide] | < 50 | – | ≤ 50 | – | – |
| Cc1cnc(Nc2ccnn2C)nc1-n1cnc(C(=O)N[C@H](CN)c2cccc(Cl)c2)c1 [Example 280, (S)-N-(2-amino-1-(3-chlorophenyl)-ethyl)-1-(5-methyl-2-((1-methyl-1H-pyrazol-5-yl)amino)-pyrimidin-4-yl)-1H-imidazole-4-carboxamide] | < 50 | – | ≤ 50 | – | – |
| Cc1cnc(N[C@H]2CCOC2)nc1-n1ccc(C(=O)NC(CO)c2ccc(F)cc2)c1 (stereo partly drawn) [Compound 204, N-(1-(4-fluoro-phenyl)-2-hydroxy-ethyl)-1-(5-methyl-2-(((S)-tetrahydro-furan-3-yl)amino)-pyrimidin-4-yl)-1H-pyrrole-3-carboxamide] | 50 to 100 | – | 50 to 100 | – | – |
| CC[C@@H](CO)Nc1ncc(C)c(-n2ccc(C(=O)N[C@H](CO)c3ccc(F)c(Cl)c3)c2)n1 [Compound 133, N-((S)-1-(3-chloro-4-fluorophenyl)-2-hydroxyethyl)-1-(2-(((S)-1-hydroxy-butan-2-yl)amino)-5-methylpyrimidin-4-yl)-1H-pyrrole-3-carboxamide] | < 50 | – | ≤ 50 | – | – |
| Cc1cn(-c2ccnc(Nc3ccccc3)c2)cc1C(=O)N[C@H](CO)c1cccc(Cl)c1 [Compound 183, (S)-N-(1-(3-chlorophenyl)-2-hydroxyethyl)-4-methyl-1-(2-(phenylamino)pyridin-4-yl)-1H-pyrrole-3-carboxamide] | 50 to 100 | – | ≤ 50 | – | – |
| Cc1cnc(Nc2ccc3c(c2)OC(C)(C)O3)nc1-n1ccc(C(=O)NC(CO)c2cccc(Cl)c2)c1 (centres unmarked) [Compound 96, N-(1-(3-chloro-phenyl)-2-hydroxyethyl)-1-(2-((2,2-dimethyl-benzo[d][1,3]dioxol-5-yl)amino)-5-methylpyrimidin-4-yl)-1H-pyrrole-3-carboxamide] | < 50 | – | ≤ 50 | – | – |
| Cc1cnc(NC2CCOCC2)nc1-n1cnc(C(=O)NC(c2cccc(Cl)c2)C(C)O)c1 (centres unmarked) [Compound 253, N-(1-(3-chlorophenyl)-2-hydroxypropyl)-1-(5-methyl-2-((tetrahydro-2H-pyran-4-yl)amino)-pyrimidin-4-yl)-1H-imidazole-4-carboxamide] | < 50 | – | ≤ 50 | – | – |
| Cc1cccc(C(CO)NC(=O)c2ccn(-c3nc(N[C@H]4CCOC4)ncc3C)c2)c1 (stereo partly drawn) [Compound 187, N-(2-hydroxy-1-(m-tolyl)ethyl)-1-(5-methyl-2-(((S)-tetrahydrofuran-3-yl)amino)pyrimidin-4-yl)-1H-pyrrole-3-carboxamide] | < 50 | – | ≤ 50 | – | – |
| Cc1cnc(NC2CCOCC2)nc1-n1cnc(C(=O)N[C@H](CO)c2cc(F)cc(Cl)c2)c1 [Example 295, (S)-N-(1-(3-chloro-5-fluorophenyl)-2-hydroxyethyl)-1-(5-methyl-2-((tetrahydro-2H-pyran-4-yl)amino)-pyrimidin-4-yl)-1H-imidazole-4-carboxamide] | < 50 | – | ≤ 50 | – | – |
| Cc1cnc(Nc2ccc(F)cc2)nc1-n1cnc(C(=O)N[C@H](CN)c2cccc(Cl)c2)c1 [Compound 248, (S)-N-(2-amino-1-(3-chlorophenyl)-ethyl)-1-(2-((4-fluorophenyl)amino)-5-methyl-pyrimidin-4-yl)-1H-imidazole-4-carboxamide] | < 50 | – | ≤ 50 | – | – |
| Cc1cnc(Nc2cccnc2)cc1-n1ccc(C(=O)NC(CO)c2ccc(F)c(Cl)c2)c1 (centres unmarked) [Compound 171, N-(1-(3-chloro-4-fluorophenyl)-2-hydroxyethyl)-1-(5-methyl-2-(pyridin-3-ylamino)pyridin-4-yl)-1H-pyrrole-3-carboxamide] | < 50 | – | ≤ 50 | – | – |
| CC[C@@H](CO)Nc1ncc(C)c(-n2ccc(C(=O)N[C@@H](CO)c3cccc(Cl)c3)c2)n1 [Compound 218, N-((R)-1-(3-chlorophenyl)-2-hydroxyethyl)-1-(2-(((S)-1-hydroxy-butan-2-yl)amino)-5-methylpyrimidin-4-yl)-1H-pyrrole-3-carboxamide] | 100 to 500 | – | 500 to 2500 | – | – |
| Cc1cnc(NC2CCOc3ccccc32)nc1-n1cnc(C(=O)N[C@H](CN)c2cccc(Cl)c2)c1 (stereo partly drawn) [Example 271, N-((S)-2-amino-1-(3-chlorophenyl)ethyl)-1-(2-(chroman-4-ylamino)-5-methylpyrimidin-4-yl)-1H-imidazole-4-carboxamide] | < 50 | – | ≤ 50 | – | – |
| Cc1cnc(NC2CCCOC2)nc1-n1ccc(C(=O)N[C@H](CO)c2cccc(Cl)c2)c1 (stereo partly drawn) [Compound 152, N-((S)-1-(3-chlorophenyl)-2-hydroxyethyl)-1-(5-methyl-2-((tetrahydro-2H-pyran-3-yl)amino)pyrimidin-4-yl)-1H-pyrrole-3-carboxamide] | < 50 | – | ≤ 50 | – | – |
| Cc1cnc(Nc2ccc(F)cc2Cl)nc1-n1cnc(C(=O)NCc2cccc(Cl)c2CO)c1 [Example 329, N-(3-chloro-2-(hydroxymethyl)-benzyl)-1-(2-((2-chloro-4-fluoro-phenyl)amino)-5-methylpyrimidin-4-yl)-1H-imidazole-4-carboxamide] | – | – | – | < 50 | ≤ 50 |
| Cc1cnc(NC2CCCCC2)nc1-n1cnc(C(=O)NC(CO)c2cccc(Cl)c2)c1 (centres unmarked) [Compound 226, N-(1-(3-chloro-phenyl)-2-hydroxy-ethyl)-1-(2-(cyclohexylamino)-5-methylpyrimidin-4-yl)-1H-imidazole-4-carboxamide] | < 50 | – | ≤ 50 | – | – |
| Cc1cnc(Nc2ccc3c(c2)OCCO3)nc1-n1ccc(C(=O)NC(CO)c2cccc(Cl)c2)c1 (centres unmarked) [Compound 139, N-(1-(3-chloro-phenyl)-2-hydroxyethyl)-1-(2-((2,3-dihydro-benzo[b][1,4]dioxin-6-yl)amino)-5-methylpyrimidin-4-yl)-1H-pyrrole-3-carboxamide] | < 50 | – | ≤ 50 | – | – |
